This is an account of results in paper PMC7026418, “The kinase polypharmacology landscape of clinical PARP inhibitors” (Scientific Reports, 2020).

Holding throughout (assay): biochemical
What all share (set-up): DiscoveRx KINOMEscan active site-directed competition binding; percent of control kinase bound to immobilised ligand

The target in test [1] is TRPM6 (Homo sapiens, UniProt Q9BX84).
In test [2] the target is T1, MLK2 (Homo sapiens, UniProt Q02779).
T1 construct: gene MAP3K10

Test [3] concerns the target CSNK1E (Homo sapiens, UniProt P49674).
Test [4] deals with T2, PCTK2 (Homo sapiens, UniProt Q00537).
T2 construct: gene CDK17
T2 sequence (Q00537 whole entry): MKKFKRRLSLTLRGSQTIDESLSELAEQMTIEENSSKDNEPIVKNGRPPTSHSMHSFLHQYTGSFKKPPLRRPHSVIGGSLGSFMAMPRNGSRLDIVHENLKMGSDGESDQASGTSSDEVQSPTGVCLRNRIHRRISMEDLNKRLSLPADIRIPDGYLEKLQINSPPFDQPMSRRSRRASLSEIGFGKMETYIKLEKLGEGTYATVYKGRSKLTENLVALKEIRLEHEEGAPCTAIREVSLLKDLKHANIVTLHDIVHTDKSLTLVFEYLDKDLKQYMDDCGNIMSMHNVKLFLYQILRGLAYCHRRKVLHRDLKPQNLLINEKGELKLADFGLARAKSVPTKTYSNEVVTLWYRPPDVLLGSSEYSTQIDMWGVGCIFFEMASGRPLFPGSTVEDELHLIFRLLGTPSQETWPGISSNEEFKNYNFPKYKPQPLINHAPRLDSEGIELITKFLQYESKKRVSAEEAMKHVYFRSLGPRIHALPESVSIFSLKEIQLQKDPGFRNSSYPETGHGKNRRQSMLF

Test [5] addresses T3, EPHB2 (Homo sapiens, UniProt P29323).
T3 sequence (P29323 1-1055): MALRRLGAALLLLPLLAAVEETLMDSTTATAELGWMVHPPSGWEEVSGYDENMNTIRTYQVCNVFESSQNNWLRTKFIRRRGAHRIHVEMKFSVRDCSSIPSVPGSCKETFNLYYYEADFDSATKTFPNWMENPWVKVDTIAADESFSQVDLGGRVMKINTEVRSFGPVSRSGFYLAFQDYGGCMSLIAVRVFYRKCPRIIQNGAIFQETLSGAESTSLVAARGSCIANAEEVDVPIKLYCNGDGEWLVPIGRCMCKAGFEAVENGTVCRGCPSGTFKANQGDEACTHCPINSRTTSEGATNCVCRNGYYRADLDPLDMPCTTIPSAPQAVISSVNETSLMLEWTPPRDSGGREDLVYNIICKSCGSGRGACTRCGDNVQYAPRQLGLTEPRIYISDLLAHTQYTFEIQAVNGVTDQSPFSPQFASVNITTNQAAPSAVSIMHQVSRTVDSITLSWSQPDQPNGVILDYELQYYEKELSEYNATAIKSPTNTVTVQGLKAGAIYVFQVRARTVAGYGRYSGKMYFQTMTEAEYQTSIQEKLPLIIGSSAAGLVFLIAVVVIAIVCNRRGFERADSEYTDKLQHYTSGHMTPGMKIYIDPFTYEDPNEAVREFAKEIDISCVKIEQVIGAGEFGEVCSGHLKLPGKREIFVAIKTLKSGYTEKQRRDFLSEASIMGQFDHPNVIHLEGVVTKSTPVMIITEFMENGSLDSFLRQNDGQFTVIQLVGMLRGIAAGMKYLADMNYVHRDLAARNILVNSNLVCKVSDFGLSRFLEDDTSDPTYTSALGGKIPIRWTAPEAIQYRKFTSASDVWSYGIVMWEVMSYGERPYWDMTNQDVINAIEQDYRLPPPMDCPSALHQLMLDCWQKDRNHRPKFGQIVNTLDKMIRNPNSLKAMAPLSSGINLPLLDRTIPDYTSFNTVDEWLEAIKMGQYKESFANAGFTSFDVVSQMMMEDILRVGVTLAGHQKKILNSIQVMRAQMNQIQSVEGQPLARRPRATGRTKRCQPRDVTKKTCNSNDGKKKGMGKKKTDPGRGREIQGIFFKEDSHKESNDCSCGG

In test [6] the target is FGFR2 (Homo sapiens, UniProt P21802).
Sequence of FGFR2 (P21802 whole entry): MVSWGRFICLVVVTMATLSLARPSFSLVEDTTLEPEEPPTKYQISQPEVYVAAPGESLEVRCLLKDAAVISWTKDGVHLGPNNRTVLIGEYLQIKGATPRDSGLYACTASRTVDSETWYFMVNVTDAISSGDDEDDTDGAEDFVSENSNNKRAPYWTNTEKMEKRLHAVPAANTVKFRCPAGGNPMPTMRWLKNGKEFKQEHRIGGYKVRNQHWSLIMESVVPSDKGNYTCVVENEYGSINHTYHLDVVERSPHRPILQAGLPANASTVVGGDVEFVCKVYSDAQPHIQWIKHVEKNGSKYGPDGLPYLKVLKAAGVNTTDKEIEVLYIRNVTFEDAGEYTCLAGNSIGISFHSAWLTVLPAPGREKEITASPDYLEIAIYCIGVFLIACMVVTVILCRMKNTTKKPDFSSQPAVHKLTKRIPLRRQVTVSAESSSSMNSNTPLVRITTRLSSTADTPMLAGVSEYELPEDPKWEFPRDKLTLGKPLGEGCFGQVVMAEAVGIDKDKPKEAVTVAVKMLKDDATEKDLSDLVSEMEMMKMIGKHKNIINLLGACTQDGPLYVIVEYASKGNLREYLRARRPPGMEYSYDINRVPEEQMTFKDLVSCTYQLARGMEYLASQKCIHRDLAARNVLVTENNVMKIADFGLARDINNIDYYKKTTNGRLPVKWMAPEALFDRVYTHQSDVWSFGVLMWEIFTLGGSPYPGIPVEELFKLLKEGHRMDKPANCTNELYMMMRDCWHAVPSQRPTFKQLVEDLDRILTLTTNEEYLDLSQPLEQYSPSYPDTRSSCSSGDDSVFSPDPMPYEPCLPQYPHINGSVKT
The target of test [7] is T4, PRKCE (Homo sapiens, UniProt Q02156).
T4 sequence (Q02156 1-737): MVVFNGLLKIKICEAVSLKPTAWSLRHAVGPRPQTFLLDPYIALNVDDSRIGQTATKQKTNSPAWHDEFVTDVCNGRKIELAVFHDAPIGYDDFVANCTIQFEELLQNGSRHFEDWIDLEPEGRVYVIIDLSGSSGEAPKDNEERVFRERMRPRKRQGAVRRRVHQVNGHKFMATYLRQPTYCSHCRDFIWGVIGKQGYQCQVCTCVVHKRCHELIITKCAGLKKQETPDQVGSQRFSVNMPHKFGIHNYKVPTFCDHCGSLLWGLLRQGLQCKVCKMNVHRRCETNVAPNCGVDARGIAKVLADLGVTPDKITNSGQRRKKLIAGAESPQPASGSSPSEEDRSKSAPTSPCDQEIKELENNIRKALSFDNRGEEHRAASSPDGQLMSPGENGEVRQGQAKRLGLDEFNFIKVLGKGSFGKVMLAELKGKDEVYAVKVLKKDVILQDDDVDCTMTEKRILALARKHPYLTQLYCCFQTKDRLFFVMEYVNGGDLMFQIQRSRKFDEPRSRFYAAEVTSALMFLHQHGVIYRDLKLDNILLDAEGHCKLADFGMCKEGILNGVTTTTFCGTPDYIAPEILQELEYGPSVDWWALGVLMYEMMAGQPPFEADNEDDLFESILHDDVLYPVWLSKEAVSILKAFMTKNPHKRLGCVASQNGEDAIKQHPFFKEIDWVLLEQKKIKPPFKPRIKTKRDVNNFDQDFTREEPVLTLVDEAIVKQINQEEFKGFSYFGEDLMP

Test [8] concerns the target ERBB4 (Homo sapiens, UniProt Q15303).
Setting [9] is: read-out: Niraparib (MK-4827) / %Ctrl @ 10000nM.
Setting [10] is: read-out: Olaparib / %Ctrl @ 10000nM.
Setting [11] is: read-out: Rucaparib / %Ctrl @ 10000nM, binding competition, % of control.
Where [12] appears, read: read-out: Talazoparib (BMN 673) / %Ctrl @ 10000nM.

The structures appear in SMILES notation. Like-named read-outs stand apart in the source and are kept apart here.

Sequence of CSNK1E (P49674 whole entry): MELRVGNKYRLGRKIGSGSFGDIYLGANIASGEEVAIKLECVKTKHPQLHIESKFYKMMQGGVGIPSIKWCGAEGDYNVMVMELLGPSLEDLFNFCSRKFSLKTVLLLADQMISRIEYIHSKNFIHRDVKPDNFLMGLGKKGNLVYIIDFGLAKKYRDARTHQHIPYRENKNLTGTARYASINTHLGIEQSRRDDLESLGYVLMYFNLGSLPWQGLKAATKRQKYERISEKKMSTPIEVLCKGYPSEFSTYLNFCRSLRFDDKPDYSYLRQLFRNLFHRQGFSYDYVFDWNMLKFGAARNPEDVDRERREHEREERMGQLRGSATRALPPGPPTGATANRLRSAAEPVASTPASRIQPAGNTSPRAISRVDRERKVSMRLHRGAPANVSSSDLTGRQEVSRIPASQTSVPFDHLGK
T1 sequence (Q02779 whole entry): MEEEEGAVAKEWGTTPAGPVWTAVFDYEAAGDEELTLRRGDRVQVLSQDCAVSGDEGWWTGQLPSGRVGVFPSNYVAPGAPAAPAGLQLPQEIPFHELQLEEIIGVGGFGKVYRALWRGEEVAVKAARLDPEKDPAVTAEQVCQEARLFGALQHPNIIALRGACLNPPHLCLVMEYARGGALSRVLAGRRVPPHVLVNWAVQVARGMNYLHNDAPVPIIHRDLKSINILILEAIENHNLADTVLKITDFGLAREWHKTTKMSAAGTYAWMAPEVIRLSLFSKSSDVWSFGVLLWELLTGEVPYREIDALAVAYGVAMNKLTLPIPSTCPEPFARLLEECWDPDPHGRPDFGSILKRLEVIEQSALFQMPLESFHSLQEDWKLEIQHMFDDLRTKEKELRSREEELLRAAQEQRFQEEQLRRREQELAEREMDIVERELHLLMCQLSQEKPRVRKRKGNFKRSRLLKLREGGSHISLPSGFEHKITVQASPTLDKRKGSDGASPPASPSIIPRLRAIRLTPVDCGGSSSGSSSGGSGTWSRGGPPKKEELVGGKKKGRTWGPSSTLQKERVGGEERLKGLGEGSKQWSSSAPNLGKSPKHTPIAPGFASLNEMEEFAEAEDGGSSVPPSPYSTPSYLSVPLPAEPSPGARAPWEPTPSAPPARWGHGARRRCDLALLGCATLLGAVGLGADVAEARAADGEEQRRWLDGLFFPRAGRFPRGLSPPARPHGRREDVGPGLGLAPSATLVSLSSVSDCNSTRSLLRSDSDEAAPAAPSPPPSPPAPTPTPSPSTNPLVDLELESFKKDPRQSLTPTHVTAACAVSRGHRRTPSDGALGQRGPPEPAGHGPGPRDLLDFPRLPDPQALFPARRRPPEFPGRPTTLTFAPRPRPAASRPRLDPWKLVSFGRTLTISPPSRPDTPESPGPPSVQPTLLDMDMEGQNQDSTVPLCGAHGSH
Sequence of ERBB4 (Q15303 whole entry): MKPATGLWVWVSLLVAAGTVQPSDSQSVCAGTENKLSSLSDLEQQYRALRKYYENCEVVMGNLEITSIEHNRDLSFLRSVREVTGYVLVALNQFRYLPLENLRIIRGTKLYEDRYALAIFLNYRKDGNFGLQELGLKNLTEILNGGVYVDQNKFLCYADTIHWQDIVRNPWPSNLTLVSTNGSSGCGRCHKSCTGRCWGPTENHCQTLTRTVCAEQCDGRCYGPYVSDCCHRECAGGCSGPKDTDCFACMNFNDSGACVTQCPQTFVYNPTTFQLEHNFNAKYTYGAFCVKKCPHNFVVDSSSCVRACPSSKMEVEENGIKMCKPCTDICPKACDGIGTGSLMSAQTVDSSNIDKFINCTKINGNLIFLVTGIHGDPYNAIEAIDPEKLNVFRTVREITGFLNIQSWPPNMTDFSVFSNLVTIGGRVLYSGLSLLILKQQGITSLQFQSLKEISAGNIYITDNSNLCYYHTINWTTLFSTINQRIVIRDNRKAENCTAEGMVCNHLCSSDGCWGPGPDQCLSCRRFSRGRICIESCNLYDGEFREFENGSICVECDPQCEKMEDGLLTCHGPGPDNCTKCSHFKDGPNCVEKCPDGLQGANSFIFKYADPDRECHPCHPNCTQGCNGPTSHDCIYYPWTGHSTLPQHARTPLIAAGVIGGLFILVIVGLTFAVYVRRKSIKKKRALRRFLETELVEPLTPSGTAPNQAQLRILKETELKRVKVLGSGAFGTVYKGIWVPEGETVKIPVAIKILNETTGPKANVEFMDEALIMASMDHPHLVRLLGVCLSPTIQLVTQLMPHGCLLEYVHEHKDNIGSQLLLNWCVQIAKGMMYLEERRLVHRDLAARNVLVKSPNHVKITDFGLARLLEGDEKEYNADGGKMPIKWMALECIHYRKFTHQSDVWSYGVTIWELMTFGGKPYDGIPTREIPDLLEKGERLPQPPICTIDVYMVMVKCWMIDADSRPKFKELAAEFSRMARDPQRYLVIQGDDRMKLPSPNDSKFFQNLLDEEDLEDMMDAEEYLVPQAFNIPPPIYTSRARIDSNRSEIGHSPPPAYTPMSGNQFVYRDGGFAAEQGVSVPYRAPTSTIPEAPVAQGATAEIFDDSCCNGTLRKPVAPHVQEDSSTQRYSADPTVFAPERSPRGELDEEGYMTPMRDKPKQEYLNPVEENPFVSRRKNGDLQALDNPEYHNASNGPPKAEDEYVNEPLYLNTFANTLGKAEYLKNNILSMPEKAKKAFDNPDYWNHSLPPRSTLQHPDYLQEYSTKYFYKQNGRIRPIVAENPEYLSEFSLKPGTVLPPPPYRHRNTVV

`NC(=O)c1cccc2cn(-c3ccc([C@@H]4CCCNC4)cc3)nc12` [Niraparib]: the percent of control binding at 10 µM was 71% in test [1] (setting [9]); 69% in test [2] (setting [9]); 57% in test [3] (setting [9]); 73% in test [4] (setting [9]); 75% in test [5] (setting [9]); 100% in test [6] (setting [9]). The figures for the percent of control binding at 10 µM in test [7] (setting [9]) and in test [8] (setting [9]) were 100% and 99%, respectively.

`O=C(c1cc(Cc2n[nH]c(=O)c3ccccc23)ccc1F)N1CCN(C(=O)C2CC2)CC1` [Olaparib]: the percent of control binding at 10 µM came out at 84% in test [1] (setting [10]); 97% in test [2] (setting [10]); 90% in test [3] (setting [10]); 100% in test [4] (setting [10]); 95% in test [5] (setting [10]); 100% in test [6] (setting [10]). Besides, the percent of control binding at 10 µM is 93% in test [7] (setting [10]) and 89% in test [8] (setting [10]).

As for `CNCc1ccc(-c2[nH]c3cc(F)cc4c3c2CCNC4=O)cc1` [Rucaparib], the percent of control binding at 10 µM in test [1] (setting [11]) is 77%; in test [2] (setting [11]), 63%; in test [3] (setting [11]) it was 76%; in test [4] (setting [11]) it was 54%; in test [5] (setting [11]) it was 91%; in test [6] (setting [11]) it was 99%. Moreover, the percent of control binding at 10 µM in test [7] (setting [11]) was found to be 74%; in test [8] (setting [11]) it was 89%.

`Cn1ncnc1[C@H]1c2n[nH]c(=O)c3cc(F)cc(c23)N[C@@H]1c1ccc(F)cc1` [Talazoparib]: the percent of control binding at 10 µM in test [1] (setting [12]) came to 100%; in test [2] (setting [12]), 70%; in test [3] (setting [12]) it was 69%; in test [4] (setting [12]), 94%; in test [5] (setting [12]), 89%; in test [6] (setting [12]), 100%. The percent of control binding at 10 µM in test [7] (setting [12]) was 93%; in test [8] (setting [12]), 91%.
